# According to ChEMBL document CHEMBL3525951, “Reevaluation of the microsomal metabolism of montelukast: major contribution by CYP2C8 at clinically relevant concentrations” (Drug Metab Dispos, 2011):
# Assays:
# [1] = biological target: Cytochrome P450 2C19 (Homo sapiens, UniProt P33261); experiment: (§1) Activity of recombinant human CYP2C19 expressed in microsomes isolated from baculovirus infected insect cell assessed as enzyme-mediated (R)-2-(1-((1-(3-(2-(7-chloroquinolin-2-yl)vinyl)phenyl)-3-(4-hydroxy-2-(2-hydroxypropan-2-yl)phenyl)propylthio)methyl)cyclopropyl)acetic acid formation at 1 uM after 60 mins by LC-MS analysis; format: ADME; conditions: 1 h
# Cytochrome P450 2C19, sequence (P33261 whole entry): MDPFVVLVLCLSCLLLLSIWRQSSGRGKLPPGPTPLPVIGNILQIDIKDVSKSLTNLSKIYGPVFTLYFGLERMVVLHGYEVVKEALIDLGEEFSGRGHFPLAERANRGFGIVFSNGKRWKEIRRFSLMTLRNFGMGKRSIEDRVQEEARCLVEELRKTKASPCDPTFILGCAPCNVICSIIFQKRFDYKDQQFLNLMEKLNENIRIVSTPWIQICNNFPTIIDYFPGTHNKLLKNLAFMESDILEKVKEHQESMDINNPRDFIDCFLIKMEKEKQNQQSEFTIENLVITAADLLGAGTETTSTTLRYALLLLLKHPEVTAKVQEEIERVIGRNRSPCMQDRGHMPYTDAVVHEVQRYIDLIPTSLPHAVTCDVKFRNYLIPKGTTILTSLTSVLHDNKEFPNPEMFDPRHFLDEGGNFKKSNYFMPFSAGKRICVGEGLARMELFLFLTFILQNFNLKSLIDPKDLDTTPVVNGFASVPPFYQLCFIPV
# [2] = tested on: Liver microsome; experiment: Drug metabolism in human liver microsomes assessed as (R)-2-(1-((1-(3-(2-(7-chloroquinolin-2-yl)vinyl)phenyl)-3-(4-hydroxy-2-(2-hydroxypropan-2-yl)phenyl)propylthio)methyl)cyclopropyl)acetic acid formation at 0.02 to 0.4 uM preincubated for 3 mins followed by beta-NADPH addition by LC-MS analysis; format: ADME
# [3] = tested on: Liver microsome; experiment: Drug metabolism in human liver microsomes assessed as (R)-2-(1-((1-(3-(2-(7-chloroquinolin-2-yl)vinyl)phenyl)-3-(4-hydroxy-2-(2-hydroxypropan-2-yl)phenyl)propylthio)methyl)cyclopropyl)acetic acid formation at 0.4 uM after 15 mins by LC-MS analysis in presence of CYP1A2 inhibitor furafylline, CYP2B6 inhibitor clopidogrel, CYP2D6 inhibitor quinidine and CYP2C9 inhibitor sulfaphenazole; format: ADME; conditions: 0.25 h
# [4] = biological target: T1, Cytochrome P450 3A4 (Homo sapiens, UniProt P08684); experiment: as §1, with “CYP3A4” for “CYP2C19”; conditions: 1 h
# T1 sequence (P08684 whole entry): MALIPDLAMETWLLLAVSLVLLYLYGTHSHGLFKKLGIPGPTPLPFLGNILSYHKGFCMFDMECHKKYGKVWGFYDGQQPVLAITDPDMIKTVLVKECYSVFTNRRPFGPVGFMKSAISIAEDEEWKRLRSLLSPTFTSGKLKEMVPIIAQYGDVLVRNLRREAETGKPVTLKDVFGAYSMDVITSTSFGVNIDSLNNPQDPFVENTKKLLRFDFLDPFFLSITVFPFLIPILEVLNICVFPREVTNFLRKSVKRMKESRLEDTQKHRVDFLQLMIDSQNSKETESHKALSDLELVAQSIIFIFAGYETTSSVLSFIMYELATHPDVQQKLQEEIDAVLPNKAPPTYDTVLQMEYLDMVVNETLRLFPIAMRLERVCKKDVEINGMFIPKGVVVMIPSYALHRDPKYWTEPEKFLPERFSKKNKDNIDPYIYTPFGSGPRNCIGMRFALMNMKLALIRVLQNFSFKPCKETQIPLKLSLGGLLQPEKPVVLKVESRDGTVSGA
# [5] = biological target: Cytochrome P450 2C9 (Homo sapiens, UniProt P11712); experiment: Inhibition of recombinant human CYP2C9 expressed in microsomes isolated from baculovirus infected insect cell after 10 mins
# Cytochrome P450 2C9, sequence (P11712 whole entry): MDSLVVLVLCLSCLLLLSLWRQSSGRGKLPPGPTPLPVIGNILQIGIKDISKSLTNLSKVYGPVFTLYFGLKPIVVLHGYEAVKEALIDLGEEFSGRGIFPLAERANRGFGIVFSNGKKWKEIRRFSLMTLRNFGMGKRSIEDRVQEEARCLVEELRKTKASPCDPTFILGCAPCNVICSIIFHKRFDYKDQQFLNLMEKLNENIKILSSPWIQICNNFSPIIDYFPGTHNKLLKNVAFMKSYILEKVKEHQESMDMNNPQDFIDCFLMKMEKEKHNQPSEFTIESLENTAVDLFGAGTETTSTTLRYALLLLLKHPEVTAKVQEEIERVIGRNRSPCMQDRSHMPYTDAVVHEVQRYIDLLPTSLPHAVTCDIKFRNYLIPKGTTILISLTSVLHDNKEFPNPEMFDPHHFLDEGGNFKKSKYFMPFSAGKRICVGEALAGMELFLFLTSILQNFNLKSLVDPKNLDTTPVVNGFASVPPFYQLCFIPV
# [6] = tested on: Liver microsome; experiment: (§2) Drug metabolism in human liver microsomes assessed as 2-(1-(((1R)-1-(3-(2-(7-chloroquinolin-2-yl)vinyl)phenyl)-3-(2-(1,2-dihydroxypropan-2-yl)phenyl)propylthio)methyl)cyclopropyl)acetic acid formation at 0.05 uM after 15 mins by LC-MS analysis in presence of CYP2C8 inhibitor gemfibrozil 1-O-beta glucuronide and CYP2C9 inhibitor sulfaphenazole; format: ADME; conditions: 0.25 h
# [7] = tested on: Liver microsome; experiment: Drug metabolism in human liver microsomes assessed as 2-(1-(((1R)-1-(3-(2-(7-chloroquinolin-2-yl)vinyl)phenyl)-3-(2-(1,2-dihydroxypropan-2-yl)phenyl)propylthio)methyl)cyclopropyl)acetic acid formation at 0.1 uM after 12 mins by LC-MS analysis in presence of 2-(1-(((S)-1-(3-(2-(7-chloroquinolin-2-yl)vinyl)phenyl)-3-(2-(2-hydroxypropan-2-yl)phenyl)propylsulfinyl)methyl)cyclopropyl)acetic acid; format: ADME; conditions: 0.2 h
# [8] = tested on: Liver microsome; experiment: Drug metabolism in human liver microsomes assessed as 2-(1-(((1R)-1-(3-(2-(7-chloroquinolin-2-yl)vinyl)phenyl)-3-hydroxy-3-(2-(2-hydroxypropan-2-yl)phenyl)propylthio)methyl)cyclopropyl)acetic acid formation at 0.02 to 0.4 uM preincubated for 3 mins followed by beta-NADPH addition by LC-MS analysis; format: ADME
# [9] = tested on: Liver microsome; experiment: Drug metabolism in human liver microsomes at 1 to 10 uM preincubated for 3 mins followed by beta-NADPH addition by LC-MS analysis; format: ADME; conditions: TDE = time-dependent effect
# [10] = tested on: Liver microsome; experiment: Drug metabolism in human liver microsomes assessed as 2-(1-(((1R)-1-(3-(2-(7-chloroquinolin-2-yl)vinyl)phenyl)-3-(2-(1,2-dihydroxypropan-2-yl)phenyl)propylthio)methyl)cyclopropyl)acetic acid formation at 0.4 uM after 15 mins by LC-MS analysis in presence of CYP1A2 inhibitor furafylline, CYP2B6 inhibitor clopidogrel, CYP2D6 inhibitor quinidine and CYP2C9 inhibitor sulfaphenazole; format: ADME; conditions: 0.25 h
# [11] = tested on: Plasma; experiment: Unbound plasma concentration in human at 10 mg, po; format: ADME, cell-free
# [12] = tested on: Liver microsome; experiment: Drug metabolism in human liver microsomes assessed as 2-(1-(((1R)-1-(3-(2-(7-chloroquinolin-2-yl)vinyl)phenyl)-3-hydroxy-3-(2-(2-hydroxypropan-2-yl)phenyl)propylthio)methyl)cyclopropyl)acetic acid formation at 0.4 uM after 15 mins by LC-MS analysis in presence of CYP1A2 inhibitor furafylline, CYP2B6 inhibitor clopidogrel, CYP2D6 inhibitor quinidine and CYP2C9 inhibitor sulfaphenazole; format: ADME; conditions: 0.25 h
# [13] = Cmax in human at 10 mg, po; format: ADME, organism-based; set-up: dose 10 mg, route oral; conditions: in vivo
# [14] = Oral bioavailability in human at 10 mg administered through tablet; format: ADME, organism-based; conditions: in vivo
# [15] = tested on: Liver microsome; experiment: Drug metabolism in human liver microsomes assessed as 2-(1-(((1R)-1-(3-(2-(7-chloroquinolin-2-yl)vinyl)phenyl)-3-(2-(1,2-dihydroxypropan-2-yl)phenyl)propylthio)methyl)cyclopropyl)acetic acid formation at 0.02 to 0.4 uM preincubated for 3 mins followed by beta-NADPH addition by LC-MS analysis; format: ADME
# [16] = tested on: Liver microsome; experiment: Drug metabolism in human liver microsomes at 1 to 10 uM preincubated for 3 mins followed by beta-NADPH addition by LC-MS analysis in presence of albumin; format: ADME
# [17] = tested on: Liver microsome; experiment: Drug metabolism in human liver microsomes assessed as 2-(1-(((S)-1-(3-(2-(7-chloroquinolin-2-yl)vinyl)phenyl)-3-(2-(2-hydroxypropan-2-yl)phenyl)propylsulfinyl)methyl)cyclopropyl)acetic acid formation at 0.02 to 0.4 uM preincubated for 3 mins followed by beta-NADPH addition by LC-MS analysis; format: ADME
# [18] = Plasma clearance in human at 3 to 18 mg, iv; format: ADME, organism-based
# [19] = biological target: T2, Cytochrome P450 2A6 (Homo sapiens, UniProt P11509); experiment: Activity of recombinant human CYP2A6 expressed in microsomes isolated from baculovirus infected insect cell assessed as enzyme-mediated metabolite formation at 10 uM after 60 mins by LC-MS analysis; format: ADME; conditions: 1 h
# T2 sequence (P11509 whole entry): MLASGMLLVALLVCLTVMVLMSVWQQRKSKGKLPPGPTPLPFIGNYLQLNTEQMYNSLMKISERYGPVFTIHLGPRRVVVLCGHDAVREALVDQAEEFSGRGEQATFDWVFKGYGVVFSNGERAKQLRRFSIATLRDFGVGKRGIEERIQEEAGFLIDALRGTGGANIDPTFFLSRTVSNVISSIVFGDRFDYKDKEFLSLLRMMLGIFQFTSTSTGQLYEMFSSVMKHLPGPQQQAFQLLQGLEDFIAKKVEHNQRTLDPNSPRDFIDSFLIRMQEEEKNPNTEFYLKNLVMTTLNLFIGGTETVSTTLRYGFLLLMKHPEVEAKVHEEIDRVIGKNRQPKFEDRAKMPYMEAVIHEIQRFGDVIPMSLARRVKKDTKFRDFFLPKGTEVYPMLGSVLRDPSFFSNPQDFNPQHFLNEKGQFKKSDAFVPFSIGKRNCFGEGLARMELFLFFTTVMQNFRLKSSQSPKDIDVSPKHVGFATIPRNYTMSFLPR
# [20] = tested on: Liver microsome; experiment: Drug metabolism in human liver microsomes assessed as 2-(2-((R)-3-((1-(carboxymethyl)cyclopropyl)methylthio)-3-(3-(2-(7-chloroquinolin-2-yl)vinyl)phenyl)propyl)phenyl)-2-hydroxypropanoic acid formation at 0.02 to 0.4 uM preincubated for 3 mins followed by beta-NADPH addition by LC-MS analysis; format: ADME
# [21] = Plasma protein binding in human; format: ADME, cell-free
# [22] = tested on: Liver microsome; experiment: Drug metabolism in human liver microsomes assessed as (R)-2-(1-((1-(3-(2-(7-chloroquinolin-2-yl)vinyl)phenyl)-3-(4-hydroxy-2-(2-hydroxypropan-2-yl)phenyl)propylthio)methyl)cyclopropyl)acetic acid formation at 0.4 uM after 15 mins by LC-MS analysis in presence of CYP2C8 inhibitor gemfibrozil 1-O-beta glucuronide, CYP2A6 inhibitor 8-methoxy-psoralen and DDC; format: ADME; conditions: 0.25 h
# [23] = tested on: Plasma; experiment: Fraction unbound in human plasma; format: ADME, cell-free
# [24] = biological target: T2, Cytochrome P450 2A6; experiment: Activity of recombinant human CYP2A6 expressed in microsomes isolated from baculovirus infected insect cell assessed as enzyme-mediated compound depletion at 0.02 uM after 30 mins by LC-MS analysis; format: ADME; conditions: 0.5 h
# [25] = biological target: T1, Cytochrome P450 3A4; experiment: Activity of recombinant human CYP3A4 expressed in microsomes isolated from baculovirus infected insect cell assessed as enzyme-mediated compound depletion at 0.02 uM after 30 mins by LC-MS analysis; conditions: 0.5 h
# [26] = tested on: Liver microsome; experiment: Drug metabolism in human liver microsomes assessed as (R)-2-(1-((1-(3-(2-(7-chloroquinolin-2-yl)vinyl)phenyl)-3-(4-hydroxy-2-(2-hydroxypropan-2-yl)phenyl)propylthio)methyl)cyclopropyl)acetic acid formation at 0.1 uM after 12 mins by LC-MS analysis in presence of 2-(1-(((S)-1-(3-(2-(7-chloroquinolin-2-yl)vinyl)phenyl)-3-(2-(2-hydroxypropan-2-yl)phenyl)propylsulfinyl)methyl)cyclopropyl)acetic acid; format: ADME; conditions: 0.2 h
# [27] = tested on: Liver microsome; experiment: as §2, with “0.4” for “0.05”, “and trimethoprim,” for “and”, “sulfaphenazole, and CYP2E1 inhibitor DDC” for “sulfaphenazole”; format: ADME; conditions: 0.25 h
# [28] = biological target: T1, Cytochrome P450 3A4; experiment: Activity of recombinant human CYP3A4 expressed in microsomes isolated from baculovirus infected insect cell assessed as enzyme-mediated 2-(1-(((1R)-1-(3-(2-(7-chloroquinolin-2-yl)vinyl)phenyl)-3-hydroxy-3-(2-(2-hydroxypropan-2-yl)phenyl)propylthio)methyl)cyclopropyl)acetic acid formation at 1 uM after 60 mins by LC-MS analysis; conditions: 1 h
# [29] = tested on: Liver microsome; experiment: Drug metabolism in human liver microsomes assessed as 2-(1-(((1R)-1-(3-(2-(7-chloroquinolin-2-yl)vinyl)phenyl)-3-hydroxy-3-(2-(2-hydroxypropan-2-yl)phenyl)propylthio)methyl)cyclopropyl)acetic acid formation at 0.4 uM after 15 mins by LC-MS analysis in presence of CYP3A4 inhibitor ketoconazole and troleandomycin; format: ADME; conditions: 0.25 h
# [30] = tested on: Liver microsome; experiment: Drug metabolism in human liver microsomes assessed as 2-(1-(((1R)-1-(3-(2-(7-chloroquinolin-2-yl)vinyl)phenyl)-3-hydroxy-3-(2-(2-hydroxypropan-2-yl)phenyl)propylthio)methyl)cyclopropyl)acetic acid formation at 0.1 uM after 12 mins by LC-MS analysis in presence of 2-(1-(((S)-1-(3-(2-(7-chloroquinolin-2-yl)vinyl)phenyl)-3-(2-(2-hydroxypropan-2-yl)phenyl)propylsulfinyl)methyl)cyclopropyl)acetic acid; format: ADME; conditions: 0.2 h
smiles,measurement,setting,value
CC(C)(O)c1ccccc1CC[C@@H](SCC1(CC(=O)[O-])CC1)c1cccc(/C=C/c2ccc3ccc(Cl)cc3n2)c1.[Na+] [MONTELUKAST SODIUM],Drug metabolism,[1],metabolite_detected
same,Drug metabolism,[2],metabolite_detected
same,Drug metabolism,[3],metabolite_detected
same,Drug metabolism,[4],metabolite_detected
same,Ki,[5],7.4 µM
same,Drug metabolism,[6],metabolite_not_detected
same,Drug metabolism,[7],metabolite_not_detected
same,Drug metabolism,[8],metabolite_detected
same,Drug metabolism,[9],tde
same,Drug metabolism,[10],metabolite_detected
same,Cp(f),[11],3 nM
same,Drug metabolism,[12],metabolite_detected
same,Cmax,[13],500 ng/mL
same,bioavailability,[14],60%
same,Drug metabolism,[15],metabolite_detected
same,Drug metabolism,[16],metabolite_not_detected
same,Drug metabolism,[17],metabolite_detected
same,clearance,[18],0.578 mL/min/kg
same,Drug metabolism,[19],metabolite_detected
same,Drug metabolism,[20],metabolite_detected
same,fraction unbound,[21],< 0.01
same,Drug metabolism,[22],metabolite_not_detected
same,Fu,[23],0.4%
same,Drug metabolism,[24],metabolite_detected
same,Drug metabolism,[25],metabolite_detected
same,Drug metabolism,[26],metabolite_not_detected
same,Drug metabolism,[27],metabolite_not_detected
same,Drug metabolism,[28],metabolite_detected
same,Drug metabolism,[29],metabolite_not_detected
same,Drug metabolism,[30],metabolite_detected
